Earlier results as cited in patent publication US20230212091A1, “Compositions for Increasing Nitrogen Sources Life Span in Plant Growth Mediums and Methods of Making” (Soilgenic Technologies, LLC, priority 2017, published 2023).

Conditions: at 20° C.

Compound: N#CN=C(N)N [DCD, dicyandiamide]
- solubility in water: approximately 32 grams/liter
